Test results: ChEMBL document CHEMBL4251633, “Design, synthesis, biological evaluation and cocrystal structures with tubulin of chiral β-lactam bridged combretastatin A-4 analogues as potent antitumor agents” (Eur J Med Chem, 2018)
Activity calls are given as the source filed them. The calls are words filed in the database; no cut-off is given here.

Key:
Mus musculus [1] = assay: Acute toxicity in ICR mouse assessed as death at 150 mg/kg, ip measured after 3 days; type: organism-based; details: in vivo, 72 h
[2] = Acute toxicity in ICR mouse assessed as survival rate at 275 mg/kg, ip measured on day 14 (reference value: 100%); type: organism-based; details: in vivo
Mus musculus [3] = assay: Acute toxicity in ICR mouse assessed as death at 100 to 275 mg/kg, ip measured after 5 to 14 days; type: organism-based; details: in vivo
A2780 [4] = assay: Antitumor activity against human A2780 cells xenografted in Balb/c nude mouse assessed as isolated tumor weight inhibition at 8 mg/kg, ip once in every 2 days measured after 14 days; type: functional, organism-based
HeLa [5] = assay: Induction of apoptosis in human HeLa cells assessed as necrotic cells at 50 nM after 48 hrs by Annexin V-FITC/propidium iodide staining based flow cytometry (reference value: 0.9%); type: functional
Mus musculus [6] = assay: Acute toxicity in ICR mouse assessed as death at 100 to 125 mg/kg, ip measured after 1 day; type: organism-based; details: in vivo, 24 h
HeLa [7] = assay: Upregulation of p53 protein expression in human HeLa cells after 48 hrs by Western blot analysis; type: functional, cell-based
A2780 [8] = assay: Antitumor activity against human A2780 cells xenografted in Balb/c nude mouse assessed as tumor volume inhibition at 8 mg/kg, ip once in every 2 days measured up to 14 days relative to control; type: functional
Mus musculus [9] = assay: Anti-vascular activity in Balb/c nude mouse assessed as inhibition of VEGF-induced capillary blood vessel formation using sc injected matrigel plug supplemented with 100 nM test compound mixed with VEGF and measured after 1 week by matrigel plug assay; type: functional, organism-based
HeLa [10] = assay: Induction of apoptosis in human HeLa cells assessed as late apoptotic cells at 50 nM after 48 hrs by Annexin V-FITC/propidium iodide staining based flow cytometry (reference value: 2%); type: functional
[11] = Growth inhibition of HOSEC at 1 uM after 48 hrs by MTT assay relative to control; details: human, HOSEC cells; read-out: GI
HeLa [12] = assay: Induction of apoptosis in human HeLa cells assessed as necrotic cells at 100 nM after 48 hrs by Annexin V-FITC/propidium iodide staining based flow cytometry (reference value: 0.9%); type: functional
HeLa [13] = assay: Induction of apoptosis in human HeLa cells assessed as early apoptotic cells at 200 nM after 48 hrs by Annexin V-FITC/propidium iodide staining based flow cytometry (reference value: 0.7%); type: functional
SK-OV-3 = assay: Antiproliferative activity against human SKOV3 cells after 48 hrs by MTT assay; details: SK-OV-3, 48 h
[14] = Acute toxicity in ICR mouse assessed as death administered ip measured up to 14 days; type: organism-based; details: in vivo
Mus musculus [15] = assay: Acute toxicity in ICR mouse assessed as death at 100 to 200 mg/kg, ip measured after 4 days; type: organism-based; details: in vivo, 96 h
A2780 [16] = assay: Antitumor activity against human A2780 cells xenografted in Balb/c nude mouse assessed as tumor weight inhibition at 8 mg/kg, ip once in every 2 days measured up to 14 days; type: functional, organism-based
HeLa [17] = assay: Inhibition of alpha-tubulin polymerization in human HeLa cells assessed as increase in ratio of supernatant faction to pellet fraction at 500 nM after 6 hrs by Western blot analysis; type: cell-based
MDA-MB-231 [18] = assay: Anticlonogenic activity against human MDA-MB-231 cells incubated for 48 hrs followed by replacement with fresh medium measured after 7 to 10 days by gentian violet staining based assay; type: functional, cell-based
HeLa [19] = assay: Cell cycle arrest in human HeLa cells assessed as accumulation at G2/M-phase at 50 nM after 24 hrs by propidium iodide staining based flow cytometry; type: functional
HeLa [20] = assay: Induction of apoptosis in human HeLa cells assessed as early apoptotic cells at 100 nM after 48 hrs by Annexin V-FITC/propidium iodide staining based flow cytometry (reference value: 0.7%); type: functional
HeLa [21] = assay: Induction of apoptosis in human HeLa cells assessed as early apoptotic cells at 50 nM after 48 hrs by Annexin V-FITC/propidium iodide staining based flow cytometry (reference value: 0.7%); type: functional
Homo sapiens = organism: Homo sapiens; assay: Disruption of microtubule structure in human SKOV3 cells assessed as decrease in density at 100 nM after 24 hrs by DAPI staining based immunofluorescence assay; type: cell-based
A2780 [22] = assay: cells; details: Homo sapiens, A2780, 48 h
Description: Antiproliferative activity against human A2780 cells after 48 hrs by MTT assay

Mus musculus [23] = assay: Toxicity in Balb/c nude mouse xenografted with human A2780 cells assessed as abnormality in spleen at 8 mg/kg, ip once in every 2 days measured after 14 days by H and E staining based assay; type: organism-based; details: in vivo, 336 h
HeLa [24] = assay: Induction of histone-H3 phosphorylation in human HeLa cells by Western blot analysis; type: cell-based
[25] = Acute toxicity in ICR mouse assessed as survival rate at 150 mg/kg, ip measured on day 14 (reference value: 100%); type: organism-based; details: in vivo
HeLa [26] = assay: Antiproliferative activity against human HeLa cells after 48 hrs by MTT assay; type: functional, cell-based
[27] = Acute toxicity in ICR mouse assessed as survival rate at 125 mg/kg, ip measured on day 14 (reference value: 100%); type: organism-based; details: in vivo
[28] = Acute toxicity in ICR mouse assessed as survival rate at 200 mg/kg, ip measured on day 14 (reference value: 100%); type: organism-based; details: in vivo
HeLa [29] = assay: Induction of apoptosis in human HeLa cells after 48 hrs by Annexin V-FITC/propidium iodide staining based flow cytometry; type: functional, cell-based
HeLa [30] = assay: Induction of apoptosis in human HeLa cells assessed as live cells at 100 nM after 48 hrs by Annexin V-FITC/propidium iodide staining based flow cytometry (reference value: 96.5%); type: functional
HeLa [31] = assay: Induction of apoptosis in human HeLa cells assessed as late apoptotic cells at 200 nM after 48 hrs by Annexin V-FITC/propidium iodide staining based flow cytometry (reference value: 2%); type: functional
[32] = Acute toxicity in ICR mouse assessed as survival rate at 100 mg/kg, ip measured on day 14 (reference value: 100%); type: organism-based; details: in vivo
HeLa [33] = assay: Upregulation of Cyclin-B1 protein expression in human HeLa cells at 50 to 200 nM by Western blot analysis; type: functional, cell-based
HeLa [34] = assay: Cell cycle arrest in human HeLa cells assessed as accumulation at G2/M-phase at 25 to 50 nM after 24 hrs by propidium iodide staining based flow cytometry; type: functional
HeLa [35] = assay: Induction of apoptosis in human HeLa cells assessed as live cells at 200 nM after 48 hrs by Annexin V-FITC/propidium iodide staining based flow cytometry (reference value: 96.5%); type: functional
HUVEC = assay: Antiangiogenic activity against HUVEC assessed as disruption of capillary-like tube formation at 50 nM after 12 hrs by inverted microscopic method; type: functional, cell-based; details: Homo sapiens
Mus musculus [36] = assay: Acute toxicity in ICR mouse assessed as death at 100 mg/kg, ip measured after 2 days; type: organism-based; details: in vivo, 48 h
MDA-MB-231 [37] = assay: Antiproliferative activity against human MDA-MB-231 cells after 48 hrs by MTT assay; type: functional, cell-based; details: MDA-MB-231, 48 h
HeLa [38] = assay: Upregulation of Bax protein expression in human HeLa cells after 48 hrs by Western blot analysis; type: functional, cell-based

What does the source list for `COc1ccc([C@H]2[C@H](C)C(=O)N2c2cc(OC)c(OC)c(OC)c2)cc1O`?
Activity (Mus musculus [1]): Non-Toxic; survival at 14 day [2]: 10%; Activity (Mus musculus [3]): Non-Toxic; inhibition (A2780 [4]): Active; Activity (HeLa [5]): 5.3%; Activity (Mus musculus [6]): Non-Toxic; Activity (HeLa [7]): Dose-dependent effect; inhibition in vivo at 8 mg/kg (A2780 [8]): 76.3%; inhibition (Mus musculus [9]): Active; Activity (HeLa [10]): 23.4%; inhibition at 48 h, 1 µM [11]: < 50%; Activity (HeLa [12]): 7.5%; Activity (HeLa [13]): 37.5%; IC50 (SK-OV-3): 3 nM; LD50 at 336 h [14]: 136 mg/kg; Activity (Mus musculus [15]): Non-Toxic; inhibition (A2780 [16]): Active; tubulin polymerization inhibition (active/inactive) (HeLa [17]): Active; Activity (MDA-MB-231 [18]): Dose-dependent effect; Activity (HeLa [19]): 100%; Activity (HeLa [20]): 35.2%; Activity (HeLa [21]): 29.3%; Activity (Homo sapiens): Active; IC50 (A2780 [22]): 2 nM; Activity (Mus musculus [23]): Non-Toxic; Activity (HeLa [24]): Dose-dependent effect; survival at 14 day [25]: 40%; IC50 (HeLa [26]): 1 nM; survival at 14 day [27]: 70%; survival at 14 day [28]: 30%; Activity (HeLa [29]): Dose-dependent effect; Activity (HeLa [30]): 27.3%; Activity (HeLa [31]): 33.8%; survival at 14 day [32]: 90%; Activity (HeLa [33]): Active; Activity (HeLa [34]): Active; Activity (HeLa [35]): 21.6%; Activity (HUVEC): Active; Activity (Mus musculus [36]): Non-Toxic; IC50 (MDA-MB-231 [37]): 3 nM; Activity (HeLa [38]): Dose-dependent effect
